Test results as given in patent US8236143B2, “Controlling chemical reactions by spectral chemistry and spectral conditioning” (GR Intellectual Reserve, LLC, priority 2002, dated 2012).

Key:
[1] = Sucrose solubility in sodium-lamp conditioned vs control water at room temperature (22° C.); assay type: physicochemical
Method: Beaker “II” was placed under another sodium lamp 12 as like Beaker “KK”; and Beaker “JJ” was placed in the same incubator as Beaker “LL”. […] Specifically, Beaker “GG” was placed under another sodium lamp 12 as like Beaker “KK” and Beaker “II”; and Becker “HH” was placed into the same incubator as Beaker “LL” and “II”.

[2] = Phenyl salicylate solubility in neon-lamp conditioned vs unconditioned acetone at room temperature; assay type: physicochemical; details: about 20 hours equilibration
Method: Acetone (about 1 ml) was pipetted into small glass test tubes and stoppers placed in the tube. Tubes were placed under a neon lam; (about 8m/cm^2) in an otherwise dark room for about 1-5 hours at about 28° C. ambient temperature. Tubes were also placed simultaneously in an incubator at 28° C. for about 1.5 hours.
Phenyl solicylate (about 3.50 grams) was added to each tube leaving a layer undissolved on the bottom of each tube. The solutions were allowed to equilibrate (about 20 hours). Solution was filtered over the crystals and 0.500 ml pipetted into fresh tubes.
After the acetone evaporated, dry weights of phenyl solicylate per ml dissolved in conditioned and unconditioned acetone were determined.

Weight (dry sucrose weight per 100 ml solution) ([1]; Beaker GG, water under sodium lamp one hour, solution at 23.5° C.) | Weight (dry sucrose weight per 100 ml solution) ([1]; Beaker HH, control water 1 hour in incubator, solution at 23° C.) | Weight (dry sucrose weight per 100 ml solution) ([1]; Beaker II, water under sodium lamp two hours, solution at 23.5° C.) | Weight (dry sucrose weight per 100 ml solution) ([1]; Beaker JJ, control water 2 hours in incubator, solution at 23.5° C.) | Weight (dry sucrose weight per 100 ml solution) ([1]; Beaker KK, water under Na lamp three hours, solution at 23.5° C.) | Weight (dry sucrose weight per 100 ml solution) ([1]; Beaker LL, control water 3 hours in incubator, solution at 23.5° C.) | more sucrose dissolved by conditioned water than by untreated control water ([1]; two hours exposure of water to the sodium lamp) | Average amount of phenyl salicylate dissolved ([2]; acetone conditioned under neon lamp) | Average amount of phenyl salicylate dissolved ([2]; unconditioned acetone (incubator 28° C.)) | Structure (SMILES)
49 g/100 ml | 49 g/100 ml | 47 g/100 ml | 44 g/100 ml | 46 g/100 ml | 49 g/100 ml | about 7% | – | – | OC[C@H]1O[C@@](CO)(O[C@H]2O[C@H](CO)[C@@H](O)[C@H](O)[C@H]2O)[C@@H](O)[C@@H]1O [Sucrose]
– | – | – | – | – | – | – | 0.78 g/mL | 0.68 g/mL | O=C(Oc1ccccc1)c1ccccc1O [phenyl salicylate]
